The NIST ThermoML archive (doi:10.1021/je049685z)

Test: xn = mol fraction of the nth substance listed
Conditions: Liquid

Cc1ccccc1 [toluene] + CCCO
mass density [kg/m3]
Conditions	100 kPa	5000 kPa	10000 kPa	15000 kPa	20000 kPa	25000 kPa	30000 kPa
303.15 K, x2 = 0	857.4	861.3	865.1	868.7	872.3	875.6	878.9
303.15 K, x2 = 0.2	847.5	851.5	855.3	859	862.5	865.9	869.2
303.15 K, x2 = 0.4	837.2	841.2	845	848.7	852.2	855.7	858.9
303.15 K, x2 = 0.6	825.9	829.9	833.7	837.4	840.9	844.3	847.5
303.15 K, x2 = 0.8	812.4	816.4	820.2	823.8	827.3	830.7	834
313.15 K, x2 = 0	848.1	852.1	856.2	860	863.7	867.2	870.7
313.15 K, x2 = 0.2	838.1	842.2	846.3	850.2	853.9	857.5	860.9
313.15 K, x2 = 0.4	828	832	836.1	840	843.7	847.3	850.7
313.15 K, x2 = 0.6	816.9	821	825	828.9	832.6	836.1	839.5
313.15 K, x2 = 0.8	803.8	807.8	811.9	815.8	819.4	823	826.3
323.15 K, x2 = 0	838.6	842.9	847.2	851.2	855.1	858.9	862.5
323.15 K, x2 = 0.2	828.5	832.9	837.2	841.3	845.2	849	852.6
323.15 K, x2 = 0.4	818.3	822.7	827	831.1	835	838.8	842.4
323.15 K, x2 = 0.6	807.4	811.8	816.1	820.2	824.1	827.9	831.5
323.15 K, x2 = 0.8	794.7	799.1	803.4	807.4	811.3	815	818.6
333.15 K, x2 = 0	829.2	833.7	838.2	842.5	846.6	850.5	854.3
333.15 K, x2 = 0.2	818.7	823.3	827.9	832.3	836.4	840.4	844.2
333.15 K, x2 = 0.4	808.5	813.1	817.8	822.1	826.3	830.3	834.1
333.15 K, x2 = 0.6	797.9	802.5	807.1	811.4	815.6	819.5	823.3
333.15 K, x2 = 0.8	785.6	790.2	794.7	799	803.1	807	810.8
